Assay results published in US7605265B2, “Heterodimers and methods of using them” (priority 2007, dated 2009).

What was measured:
[1] = tested on: rat cortical neurons; test: NMDA survival assay (LDH release) in cortical neurons; format: cell-based; conditions: DIV11 rat cortical neurons, NMDA 20 μM, compound 0.001-10 μg/mL, LDH at 24 hr; FIG. 3
Description: The compounds were subjected to NMDA survival assays to investigate their ability to prevent NMDA receptor-induced excitotoxicity. The NMDA survival assay was performed to measure the degree of protection provided to cortical neuronal cells when treated with the compounds prior to an ischemic insult.
DIV10 cortical neurons were treated with NMDA (20 μM) in the presence of compound (cpd) B or C (μg/mL). LDH release in the medium was detected at 24 hr after treatment. DMSO was used as the solvent control, while MK-801 (10 μM) is a known NMDA antagonist.
DIV11 rat cortical neurons were treated with NMDA (20 μM) in the absence or presence of compounds (MK-801, 10 μM; compound A, 0.001-10 μg/mL). LDH release in the medium was detected at 24 hr after treatment. DMSO was used as the solvent control.

[2] = tested on: transient focal ischemia; test: MCAO (middle carotid artery occlusion model), transient focal ischemia; format: in vivo, mice
Description: The MCAO (middle carotid artery occlusion model) was performed to investigate the protective effects of compounds A, B and C on the brain when the brain was exposed to transient focal ischemia (lack of oxygen), emulating brain conditions during a stroke. […] The ability of the novel compounds to protect against the appearance of these neurological deficits was examined using a four-point scale neurological scoring system (Mann Whitney U test). For each of the following observable signs, the distribution of test subjects was noted (with and without treatment with the invention after ischemia): (0) no observable neurological deficits (normal); (1) failure to extend the left forepaw fully (mild); (2) circling to the contralateral side (moderate); and (3) loss of walking and righting reflex (severe). • (ii) The brains of the test subjects slices were sectioned into five pieces and the infarct area and volume of each slice was measured. The % of infarct area in test subjects treated with the invention after ischemia was compared to that of the control group for each brain slice. • (iii) Hemispheric brain swelling and infarct volume (the area of dead tissue caused by inadequate blood supply) was measured for test subjects treated with the invention after ischemia, and compared to that of the control group.
The compounds were administered 5 minutes after ischemia, 5 minutes after reperfusion, or 6 hours after ischemia. FIGS. 5a to 5f show results for the heterodimers compound B, C or A respectively, when administered 5 minutes after ischemia or reperfusion. FIGS. 5g and 5h show the results when the novel heterodimers were administered 6 hours after ischemia.
Compound B was administered at 5 minutes after ischemia. Distribution of neurological scores based on a four-point scale neurological scoring system (Mann Whitney U test): (0) no observable neurological deficits (normal); (1) failure to extend the left forepaw fully (mild); (2) circling to the contralateral side (moderate); and (3) loss of walking and righting reflex (severe).
The brain was sectioned into five pieces, each 2-mm thick. The infarct area of each posterior surface was analyzed by an image analysis program. The percentage of infarct area and volume were calculated and presented as the percentage of the infarct area of the contralateral hemisphere to eliminate the contribution of edema to the ischemic lesion.
The infarct area of each posterior surface was analyzed by an image analysis program. Hemispheric brain swelling was calculated as follows (ipsilateral volume−contralateral volume)/contralateral volume×100%.

[3] = 0.005 mg/kg, 5 minutes after ischemia
[4] = 0.05 mg/kg, 5 minutes after ischemia
[5] = 0.1 mg/kg, 5 minutes after ischemia
[6] = 0.2 mg/kg, 5 minutes after ischemia

O=c1ccc2c([nH]1)CCC(NCCCNc1c3c(nc4cc(Cl)ccc14)CCCC3)C2 (centres unmarked) [Compound A]
protection against NMDA insults (LDH release) [1]: capable of protecting cortical neurons against NMDA insults
% Infarct area in brain slice # 1 [2, 3]: 2.2 ± 2.0%
% Infarct area in brain slice # 2 [2, 3]: 48.8 ± 4.3%
% Infarct area in brain slice # 3 [2, 3]: 49.3 ± 4.4%
% Infarct area in brain slice # 4 [2, 3]: 26.5 ± 9.3%
% Infarct area in brain slice # 5 [2, 3]: −4.3 ± 0.6%
Hemispheric swelling (%) [2, 3]: 10.3 ± 0.4%
Infarct volume (%) [2, 3]: 31.3 ± 4.3%
Observed Neurological Deficits Mean ± SEM [2, 3]: 1.6 ± 0.2
Observed Neurological Deficits, score 0 (number of animals) [2, 3]: 0
Observed Neurological Deficits, score 1 (number of animals) [2, 3]: 2
Observed Neurological Deficits, score 2 (number of animals) [2, 3]: 3
Observed Neurological Deficits, score 3 (number of animals) [2, 3]: 0
n (dead/total): dead/total [2, 3]: 5 (5/10)
% Infarct area in brain slice # 1 [2, 4]: −0.4 ± 2.2%
% Infarct area in brain slice # 2 [2, 4]: 39.1 ± 2.4 %
% Infarct area in brain slice # 3 [2, 4]: 44.5 ± 0.9 %
% Infarct area in brain slice # 4 [2, 4]: 17.1 ± 3.2 %
% Infarct area in brain slice # 5 [2, 4]: −6.3 ± 2.8%
Hemispheric swelling (%) [2, 4]: 15.5 ± 1.1%
Infarct volume (%) [2, 4]: 24.8 ± 1.1 %
Observed Neurological Deficits Mean ± SEM [2, 4]: 1.2 ± 0.2
Observed Neurological Deficits, score 0 (number of animals) [2, 4]: 0
Observed Neurological Deficits, score 1 (number of animals) [2, 4]: 5
Observed Neurological Deficits, score 2 (number of animals) [2, 4]: 1
Observed Neurological Deficits, score 3 (number of animals) [2, 4]: 0
n (dead/total): dead/total [2, 4]: 6 (1/7)
% Infarct area in brain slice # 1 [2, 5]: 2.0 ± 1.8%
% Infarct area in brain slice # 2 [2, 5]: 49.5 ± 2.0 %
% Infarct area in brain slice # 3 [2, 5]: 48.4 ± 1.8 %
% Infarct area in brain slice # 4 [2, 5]: 10.4 ± 3.3 %
% Infarct area in brain slice # 5 [2, 5]: −9.9 ± 1.7%
Hemispheric swelling (%) [2, 5]: 12.5 ± 1.1%
Infarct volume (%) [2, 5]: 26.5 ± 1.4 %
Observed Neurological Deficits Mean ± SEM [2, 5]: 1.2 ± 0.1
Observed Neurological Deficits, score 0 (number of animals) [2, 5]: 0
Observed Neurological Deficits, score 1 (number of animals) [2, 5]: 7
Observed Neurological Deficits, score 2 (number of animals) [2, 5]: 2
Observed Neurological Deficits, score 3 (number of animals) [2, 5]: 0
n (dead/total): dead/total [2, 5]: 9 (4/13)
% Infarct area in brain slice # 1 [2, 6]: 1.3 ± 0.7%
% Infarct area in brain slice # 2 [2, 6]: 44.7 ± 6.6%
% Infarct area in brain slice # 3 [2, 6]: 49.0 ± 3.8%
% Infarct area in brain slice # 4 [2, 6]: 37.3 ± 3.8%
% Infarct area in brain slice # 5 [2, 6]: −3.3 ± 1.6%
Hemispheric swelling (%) [2, 6]: 15.2 ± 1.2%
Infarct volume (%) [2, 6]: 33.8 ± 1.6%
Observed Neurological Deficits Mean ± SEM [2, 6]: 1.9 ± 0.7
Observed Neurological Deficits, score 0 (number of animals) [2, 6]: 0
Observed Neurological Deficits, score 1 (number of animals) [2, 6]: 2
Observed Neurological Deficits, score 2 (number of animals) [2, 6]: 4
Observed Neurological Deficits, score 3 (number of animals) [2, 6]: 1
n (dead/total): dead/total [2, 6]: 7 (4/11)
infarct area (in words) ([2]; 0.05 and 0.1 mg/kg, 5 minutes after ischemia, FIG. 5e): improvement in the infarct area
infarct volume and hemispheric swelling (in words) ([2]; 5 minutes after ischemia (compound A: 0.05 and 0.1 mg/kg), FIG. 5b, 5f): decreases infarct volume but not hemispheric swelling
neurological deficits induced by ischemia (in words) ([2]; administered 5 minutes after ischemia): reduced neurological deficits induced by ischemia
